Tests used:
[1] = target: T1, α4(R353C)β2δ GABAA receptors (UniProt P63138+Q9D6F4, R389C); assay: Patch clamp of GABA-gated current at mutated receptors in HEK-293 cells; type: cell-based, mouse α4; conditions: 30 nM THP
T1 construct: expressed in transfected cells; host or cells: HEK-293
Protocol: (§1) Whole cell patch clamp recording—GABA-gated currents were recorded at room temperature (20-22° C.) at a holding potential of −50 mV^14. The pipet solution contained (in mM): N-methyl-D-glucamine chloride 120, Cs4BAPTA 5 (Calbiochem), Mg-ATP 5, and an ATP regeneration system (20 mM Tris phosphocreatine and creatine kinase). Internal [Cl^−] or the holding potential were varied, using gluconate as the anion, to alter the direction of Cl^− flow, corrected for the junction potential. In some cases, current-voltage curves were constructed using the peak current response to agonist or agonist+THP across a range of holding potentials (−60 to +60) applied as 10 mV steps, or as a voltage ramp. […] Traces are presented as the average of 3 traces after subtraction of the leak current. […] This rapid application technique yields currents with a rapid rise phase. THP was also bath applied 30 s prior to tests of steroid effects. Currents were recorded using an Axopatch 1D amplifier (Axon Instruments) filtered at 2 kHz (four-pole Bessel filter) and detected at 10 kHz (pClamp 5.1). Analysis of peak current was accomplished with pClamp 9.2 and Origin software (Microcal).
(§2) Mutagenesis: Site-directed mutations were made using the Quik-Change Mutagenesis Kit I or II (Stratagene Inc., La Jolla, Calif.). Numbering of mutated residues was based on the distance from arginine 99^19. Successful mutations were verified with double-stranded sequencing of end-products (Genewiz Inc., North Brunswick, N.J.).
(§3) Recombinant receptors: Human embryonic kidney (HEK)-293 cells were transfected with α4 β2δ or other indicated subunit combinations (see Supplementary Methods) and co-transfected with enhanced green fluorescent protein for visualization. GABA-gated currents were recorded at room temperature (20-22° C.) at a holding potential of −50 mV^17 using a pipet solution containing 120 mM: N-methyl-D-glucamine chloride. Internal [Cl^−] or the holding potential were varied to alter the direction of Cl^− flow. […] Currents were recorded using an Axopatch 1D amplifier (Axon Instruments) filtered at 2 kHz (four-pole Bessel filter), detected at 10 kHz and analyzed with pClamp 9.2. Desensitization rate was determined using non-linear curve-fitting routines (Origin, Microcal; see next section).

[2] = target: T2, α4(R353K)β2δ GABAA receptors (UniProt P63138+Q9D6F4, R389K); assay: as above; type: cell-based, mouse α4; conditions: 30 nM THP
T2 construct: expressed in transfected cells; host or cells: HEK-293
Protocol: as §1, §2, §3

[3] = target: T3, α4[R353Q]β2δ GABAA receptors (UniProt P63138+Q9D6F4, R389Q); assay: as above; type: cell-based, mouse α4; conditions: 30 nM THP
T3 construct: expressed in transfected cells; host or cells: HEK-293
Protocol: as §1, §2, §3

[4] = tested on: α4β2δ GABAA receptors with α4 mutations R351Q, K352Q, K316Q, R317Q and K318Q; assay: as above; type: cell-based, mouse α4; conditions: 30 nM THP
Protocol: as §1, §2, §3

[5] = tested on: CA1 hippocampal pyramidal cells; assay: Tonic GABAergic current, whole cell patch clamp, hippocampal slice; type: cell-based, mouse
Protocol: In whole cell recordings of the tonic current, the bath contained 2 mM kynurenic acid and 5-10 mM TEA to pharmacologically isolate the GABAergic current, and in some cases, 200 nM gabazine (6-imino-3-(4-methyoxyphenyl)-1 (6H)-pyridazinebutanoic acid hydrobromide) to selectively block the synaptic GABAergic currents^22. […] In some cases, 50 μM L-655,708 was added to the bath solution to block α5-containing GABAA receptors^23.
Tonic current was recorded as the difference current produced by 120 μM gabazine, which blocks all GABAA receptor, before and after 30 nM THP^24. Current was also recorded in response to 2 s 10 mV steps in the holding potential, and current-voltage curves generated to the steady-state current. Because fast-inactivating conductances would not be excluded in a voltage ramp, stable steady-state current responses were used instead to construct the current-voltage (IV) curves. Input resistance (Rm) was calculated from the current response to voltage steps from −60 to −40 mV using Ohm's Law. The reversal potential was determined by the […] of the IV curve (−90 to −10 mV). The gabazine-sensitive slope conductance was assessed as the slope of the linear portion of outward current plot recorded before and after THP after subtraction of the gabazine-generated current (in the presence of L-655,708 to block α5-GABAA receptors). Only data with a stable baseline and pipet access resistance <10 MΩ were included in the analysis.

SMILES: CC(=O)[C@H]1CC[C@H]2[C@@H]3CC[C@H]4C[C@H](O)CC[C@]4(C)[C@H]3CC[C@]12C [THP, 3α-OH-5α[β]-pregnan-20-one]
- steroid-induced reduction in outward current at mutant receptor [1]: prevented the steroid-induced reduction in outward current
- THP inhibition of outward current at mutant receptor [2]: did not prevent THP inhibition of outward current
- effect on inward current [3]: increased inward current
- steroid-induced reduction in outward current at mutant receptor ([3]; R353Q): prevented the steroid-induced reduction in outward current
- effect of mutation on THP inhibition of outward current [4]: had no effect
- reduction of outward tonic current ([5]; 30 nM THP, pubertal mice, low internal Cl−): 48±6%
- effect on outward tonic current ([5]; before puberty): increased the outward tonic current
- effect on tonic GABAergic current, inward ([5]; pubertal, cell loaded with Cl− to produce inward current): increased the tonic GABAergic current
- effect on outward tonic current ([5]; δ−/− mouse after puberty): increased the outward tonic current
